Where two headings read alike, the source gives them in different places.

For the assay, the target named is T1, V600E full-length B-Raf (Homo sapiens, UniProt P15056, V600E).
T1 construct: 1 μM FSBA-MEK and 20 nM V600E full-length B-Raf; made in house; host or cells: sf9 insect cells (baculovirus)
In words: B-Raf IC50 Assay (B-RAF V600E inhibition assay, Example A). The class given is biochemical. In outline:
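Full-length V600E B-Raf (20 nM, from Sf9 baculovirus) was preincubated 15 min with 1 μM FSBA-modified wild-type MEK in pH 7.2 Pipes/KCl/MgCl2 buffer, then started with 4 μM ATP plus [γ-33P]ATP. After 60 min at 22 °C, TCA-quenched product was filter-captured and 33P incorporation counted by scintillation.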

Where [1] appears, read: B-Raf V600E assay of Example A: less than 100 nM, read-out: IC50.
Where [2] appears, read: B-Raf V600E assay of Example A: less than about 1 μM, read-out: IC50.
[3] abbreviates: incorporation of radio labeled phosphate from [γ-33P]ATP into FSBA-modified wild-type MEK, 4 μM ATP, 20 nM V600E full-length B-Raf, 60-minute incubation, 22° C., read-out: BRAF V600E IC50.

T1 sequence (P15056 whole entry V600E): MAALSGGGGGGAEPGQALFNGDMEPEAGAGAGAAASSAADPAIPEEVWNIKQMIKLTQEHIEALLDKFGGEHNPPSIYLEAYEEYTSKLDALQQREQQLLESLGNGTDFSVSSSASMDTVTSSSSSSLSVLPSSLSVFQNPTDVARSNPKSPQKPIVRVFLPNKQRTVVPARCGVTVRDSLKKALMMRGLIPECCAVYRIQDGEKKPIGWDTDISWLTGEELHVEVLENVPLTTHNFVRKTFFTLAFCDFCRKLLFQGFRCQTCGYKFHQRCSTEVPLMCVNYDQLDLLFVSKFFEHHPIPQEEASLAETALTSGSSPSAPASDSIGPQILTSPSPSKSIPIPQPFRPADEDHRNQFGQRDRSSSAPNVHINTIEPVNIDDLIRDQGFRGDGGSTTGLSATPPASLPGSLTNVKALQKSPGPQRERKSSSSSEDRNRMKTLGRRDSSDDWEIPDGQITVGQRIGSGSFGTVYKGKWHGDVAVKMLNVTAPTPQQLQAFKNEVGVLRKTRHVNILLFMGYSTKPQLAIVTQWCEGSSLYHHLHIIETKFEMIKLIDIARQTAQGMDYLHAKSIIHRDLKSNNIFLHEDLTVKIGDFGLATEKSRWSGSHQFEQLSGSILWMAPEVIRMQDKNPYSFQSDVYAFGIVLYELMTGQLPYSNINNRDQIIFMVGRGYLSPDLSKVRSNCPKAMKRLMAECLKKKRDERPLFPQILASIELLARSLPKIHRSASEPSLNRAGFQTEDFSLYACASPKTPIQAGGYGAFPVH

Take `Nc1ncnc2c(C(=O)Nc3c(F)ccc(NS(=O)(=O)c4ccccc4)c3F)csc12` [Example 11, 4-Amino-thieno[3,2-d]pyrimidine-7-carboxylic acid (3-benzenesulfonylamino-2,6-difluoro-phenyl)-amide]: the IC50 under setting [1] is less than 100 nM, the IC50 under setting [2] was less than 1000 nM and the IC50 under setting [3] was determined as 0.89 nM.

As to `CCCS(=O)(=O)Nc1ccc(Cl)c(NC(=O)c2csc3c(N)ncnc23)c1F` [Example 7, 4-Amino-thieno[3,2-d] pyrimidine-7-carboxylic acid [6-chloro-2-fluoro-3-(propane-1-sulfonyl-amino)-phenyl]-amide], the IC50 by setting is: under setting [1], less than 100 nM; under setting [2], less than 1000 nM; under setting [3], 1.01 nM.

Take `CCCS(=O)(=O)Nc1ccc(F)c(NC(=O)c2csc3c(N)ncnc23)c1F` [Example 6, 4-Amino-thieno[3,2-d] pyrimidine-7-carboxylic acid [2,6-difluoro-3-(propane-1-sulfonylamino)-phenyl]-amide]: the IC50 runs as follows: under setting [1], less than 100 nM; under setting [2], less than 1000 nM; under setting [3], 2.89 nM.

With `CCCS(=O)(=O)Nc1ccc(Cl)c(NC(=O)c2csc3c(NC4CCCCC4)ncnc23)c1Cl` [Example 81, 4-Cyclohexyl-amino-thieno [3,2-d] pyrimidine-7-carboxylic acid [2,6-dichloro-3-(propane-1-sulfonyl-amino)-phenyl]-amide], the IC50 runs as follows: under setting [2], less than 1000 nM; under setting [3], 110 nM.

Turning to `CCCS(=O)(=O)Nc1ccc(Cl)c(NC(=O)c2csc3c(NC4CCC4)ncnc23)c1Cl` [Example 72, 4-Cyclobutyl-amino-thieno [3,2-d] pyrimidine-7-carboxylic acid [2,6-dichloro-3-(propane-1-sulfonyl-amino)-phenyl]-amide], the IC50 runs as follows: under setting [1], less than 100 nM; under setting [2], less than 1000 nM; under setting [3], 2.4 nM.

Regarding `CCCS(=O)(=O)Nc1ccc(F)c(NC(=O)c2csc3c(NCC)ncnc23)c1Cl` [Example 44, 4-Ethylamino-thieno[3,2-d]pyrimidine-7-carboxylic acid [2-chloro-6-fluoro-3-(propane-1-sulfonylamino)-phenyl]-amide], the IC50 under setting [1] was less than 100 nM, the 50% inhibitory concentration (IC50) under setting [2] is less than 1000 nM and the IC50 under setting [3] stood at 8.7 nM.

Take `CCS(=O)(=O)Nc1ccc(F)c(NC(=O)c2csc3c(N)ncnc23)c1F` [Example 2, 4-Amino-thieno pyrimidine-7-carboxylic acid (3-ethanesulfonylamino-2,6-difluoro-phenyl)-amide]: the IC50 was less than 100 nM under setting [1], less than 1000 nM under setting [2] and 12 nM under setting [3].

For `CC(C)CS(=O)(=O)Nc1ccc(F)c(NC(=O)c2csc3c(N)ncnc23)c1Cl` [Example 8, 4-Amino-thieno[3,2-d]pyrimidine-7-carboxylic acid[2-chloro-6-fluoro-3-(2-methyl-propane-1-sulfonylamino)-phenyl]-amide], the IC50 was less than 100 nM under setting [1], less than 1000 nM under setting [2] and 0.6 nM under setting [3].

With `CCCS(=O)(=O)Nc1ccc(F)c(NC(=O)c2scc3c(N)ncnc23)c1F` [Example 100, 4-Amino-N-(2,6-difluoro-3-(propylsulfonamido)phenyl)thieno[3,4-d]pyrimidine-7-carboxamide], the IC50 is less than 100 nM under setting [1], less than 1000 nM under setting [2] and 29.8 nM under setting [3].

`Nc1ncnc2c(C(=O)Nc3c(F)ccc(NS(=O)(=O)CC4CC4)c3F)csc12` [Example 18, 4-Amino-thieno[3,2-d] pyrimidine-7-carboxylic acid (3-cyclopropyl-methanesulfonyl-amino-2,6-di-fluoro-phenyl)-amide]: the IC50 is less than 100 nM under setting [1], less than 1000 nM under setting [2] and 7.4 nM under setting [3].

For the molecule `CCCS(=O)(=O)Nc1cccc(NC(=O)c2csc3c(N)ncnc23)c1F` [Example 26, 4-Amino-thieno[3,2-d]pyrimidine-7-carboxylic acid[2-fluoro-3-(propane-1-sulfonylamino)-phenyl]-amide], the IC50 under setting [1] is less than 100 nM, the IC50 under setting [2] was less than 1000 nM and the IC50 under setting [3] stood at 20 nM.

For the origin of these results see patent publication US20120157439A1, “RAF INHIBITOR COMPOUNDS AND METHODS OF USE THEREOF” (GENENTECH, INC., priority 2009, published 2012).
